Laboratory results published in PubChem BioAssay (NCI).
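Step 1: Grow cells in 96-well plates. Step 2: Expose to compound for 48 hours at 5 concentrations. Step 3: Interpolate endpoints linearly; if unreached, use highest concentration. At the TGI there is no net growth.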

Legend:
Experiment in all cases: NCI tumour cell line growth inhibition, 48 h
HOP-92 NSCLC = test system: HOP-92 NSCLC
LXFL 529 NSCLC = test system: LXFL 529 NSCLC
HL-60(TB) leukemia = test system: HL-60(TB) leukemia
SK-MEL-2 melanoma = test system: SK-MEL-2 melanoma
SN12C renal = test system: SN12C renal
IGROV1 ovarian = test system: IGROV1 ovarian
M14 melanoma = test system: M14 melanoma
UACC-62 melanoma = test system: UACC-62 melanoma
LOX IMVI melanoma = test system: LOX IMVI melanoma
UO-31 renal = test system: UO-31 renal
SNB-19 CNS = test system: SNB-19 CNS
CAKI-1 renal = test system: CAKI-1 renal
MALME-3M melanoma = test system: MALME-3M melanoma
TK-10 renal = test system: TK-10 renal
KM20L2 colon = test system: KM20L2 colon
SW-620 colon = test system: SW-620 colon
786-0 renal = test system: 786-0 renal
HCC-2998 colon = test system: HCC-2998 colon
A549 NSCLC = test system: A549 NSCLC
XF 498 CNS = test system: XF 498 CNS
SF-268 CNS = test system: SF-268 CNS
RXF 393 renal = test system: RXF 393 renal
SF-295 CNS = test system: SF-295 CNS
EKVX NSCLC = test system: EKVX NSCLC
NCI-H23 lung = test system: NCI-H23 lung
COLO 205 colon = test system: COLO 205 colon
MOLT-4 leukemia = test system: MOLT-4 leukemia
SK-MEL-28 melanoma = test system: SK-MEL-28 melanoma
SNB-78 CNS = test system: SNB-78 CNS
HOP-62 NSCLC = test system: HOP-62 NSCLC
M19-MEL melanoma = test system: M19-MEL melanoma
CCRF-CEM leukemia = test system: CCRF-CEM leukemia
NCI-H226 lung = test system: NCI-H226 lung
UACC-257 melanoma = test system: UACC-257 melanoma
HCT-116 colon = test system: HCT-116 colon
U251 CNS = test system: U251 CNS
OVCAR-3 ovarian = test system: OVCAR-3 ovarian
SK-MEL-5 melanoma = test system: SK-MEL-5 melanoma
SNB-75 CNS = test system: SNB-75 CNS
DMS 114 small cell lung = test system: DMS 114 small cell lung
NCI-H522 lung = test system: NCI-H522 lung
SR leukemia = test system: SR leukemia
RPMI-8226 leukemia = test system: RPMI-8226 leukemia
HT29 colon = test system: HT29 colon
SF-539 CNS = test system: SF-539 CNS
HOP-18 NSCLC = test system: HOP-18 NSCLC
RXF-631 renal = test system: RXF-631 renal
SK-OV-3 ovarian = test system: SK-OV-3 ovarian
OVCAR-8 ovarian = test system: OVCAR-8 ovarian
HCT-15 colon = test system: HCT-15 colon
A498 renal = test system: A498 renal
ACHN renal = test system: ACHN renal
DMS 273 small cell lung = test system: DMS 273 small cell lung
NCI-H460 lung = test system: NCI-H460 lung
K-562 leukemia = test system: K-562 leukemia
KM12 colon = test system: KM12 colon
OVCAR-5 ovarian = test system: OVCAR-5 ovarian

Measured: TGI

Cc1ccc(NC(=O)CC/C(CC(=O)C(C)(C)C)=N/Nc2nnc(C)n2N)cc1C
> 100 µM: HOP-92 NSCLC | LXFL 529 NSCLC | HL-60(TB) leukemia | SK-MEL-2 melanoma | SN12C renal | IGROV1 ovarian | M14 melanoma | UACC-62 melanoma | LOX IMVI melanoma | UO-31 renal | SNB-19 CNS | CAKI-1 renal | MALME-3M melanoma | TK-10 renal | KM20L2 colon | SW-620 colon | 786-0 renal | HCC-2998 colon | A549 NSCLC | XF 498 CNS | SF-268 CNS | RXF 393 renal | SF-295 CNS | EKVX NSCLC | NCI-H23 lung | COLO 205 colon | MOLT-4 leukemia | SK-MEL-28 melanoma | SNB-78 CNS | HOP-62 NSCLC | M19-MEL melanoma | CCRF-CEM leukemia | NCI-H226 lung | UACC-257 melanoma | HCT-116 colon | U251 CNS | OVCAR-3 ovarian | SK-MEL-5 melanoma | SNB-75 CNS | DMS 114 small cell lung | NCI-H522 lung | SR leukemia | RPMI-8226 leukemia | HT29 colon | SF-539 CNS | HOP-18 NSCLC | RXF-631 renal | SK-OV-3 ovarian | OVCAR-8 ovarian | HCT-15 colon | A498 renal | ACHN renal | DMS 273 small cell lung | NCI-H460 lung | K-562 leukemia | KM12 colon | OVCAR-5 ovarian
